Measurements from PMC7246999 (International Journal of Molecular Sciences, 2020).

How the values were obtained:
[1] = target: T1, hMPC-2 (Homo sapiens, UniProt O95563); assay: Fluorescence quenching binding assay, purified hMPC-2 homo-complex; settings: hMPC-2 in DDM micelles, room temperature, fluorescence at 338 nm, n = 3; read-out: Dissociation constant (Kd)
T1 construct: HA tag (hemagglutinin, […]) (N, cleaved yes); 10x His tag (N, cleaved yes); made in house; host or cells: Sf9 (Spodoptera frugiperda), baculovirus
T1 sequence (O95563 1-127): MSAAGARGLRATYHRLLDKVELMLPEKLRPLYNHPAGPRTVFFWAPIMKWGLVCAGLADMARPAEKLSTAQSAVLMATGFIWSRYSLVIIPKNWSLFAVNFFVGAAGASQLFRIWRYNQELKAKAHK
Procedure: (§1) In vitro fluorescence quenching was performed to measure the binding affinity of the purified hMPCs to their ligands, such as the pyruvate substrate and inhibitors, to validate their function (Figure 4). First, the equilibrium dissociation constants (Kd) of the hMPCs to pyruvate substrates were measured (Figure 4A,D).
(§2) A fluorescence analysis was performed using a LS55 spectrofluorophotometer at room temperature (Perkin Elmer, Waltham, MA, USA). The protein sample was prepared in buffer containing 50 mM Tris-HCl, 300 mM NaCl, and 0.05% DDM with a final concentration of 0.07 mg/ mL. […] Pyruvate was titrated to hMPC-1, hMPC-2, and hMPC-1/hMPC-2 up to 200mM concentrations. In the case of […], it was titrated to hMPC-1, hMPC-2, and hMPC-1/hMPC-2 up to 300uM, 200uM, 200uM concentrations, respectively. Pioglitazone was titrated to hMPC-1, hMPC-2, and hMPC-1/hMPC-2 up to 400uM, 500uM, and 400uM concentrations, respectively. All data were collected in the wavelength range of 270–450 nm (shown from 300 nm to 450 nm only) with a 1-min delay for each titration point. The dissociation constants were calculated by the maximum intensities in the 338 nm wavelength of each spectrum.

[2] = target: T2, hMPC-1/hMPC-2 (Homo sapiens, UniProt O95563+Q9Y5U8); assay: Fluorescence quenching binding assay, purified hMPC-1/hMPC-2 hetero-complex; settings: for Kd: hMPC-1/hMPC-2 in DDM micelles, room temperature, fluorescence at 338 nm, n = 3, read-out: Dissociation constant (Kd)
T2 construct: HA tag (hemagglutinin, […]) (N); HA tag (hemagglutinin, […]) (N, cleaved yes); 10x His tag (N, cleaved yes); made in house; host or cells: Sf9 (Spodoptera frugiperda), baculovirus; proteins purified singly, mixed 1:1, then FLAG-resin
T2 sequence (Q9Y5U8 1-109): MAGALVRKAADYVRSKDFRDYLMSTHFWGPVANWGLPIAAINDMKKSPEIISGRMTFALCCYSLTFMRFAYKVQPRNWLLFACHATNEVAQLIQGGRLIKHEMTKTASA
T2 sequence (O95563 1-127): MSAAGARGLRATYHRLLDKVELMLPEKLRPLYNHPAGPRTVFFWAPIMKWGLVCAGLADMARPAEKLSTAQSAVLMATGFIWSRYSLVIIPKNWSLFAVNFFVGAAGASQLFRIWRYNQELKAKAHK
Procedure: as §1, §2

[3] = target: T3, hMPC-1 (Homo sapiens, UniProt Q9Y5U8); assay: Fluorescence quenching binding assay, purified hMPC-1 homo-complex; settings: hMPC-1 in DDM micelles, room temperature, fluorescence at 338 nm, n = 3; read-out: Dissociation constant (Kd)
T3 construct: HA tag (hemagglutinin, […]) (N); made in house; host or cells: Sf9 (Spodoptera frugiperda), baculovirus
T3 sequence (Q9Y5U8 1-109): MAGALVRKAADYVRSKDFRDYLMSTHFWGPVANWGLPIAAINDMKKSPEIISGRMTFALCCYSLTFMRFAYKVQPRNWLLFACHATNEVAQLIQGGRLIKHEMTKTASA
Procedure: as §1, §2

[4] = target: the molecule itself; assay: SEC; analytical SEC, HiLoad 16/600 Superdex 200 pg, 50 mM Tris-HCl (pH 7), 300 mM NaCl, 0.05% (w/v) DDM, 1 mL/min; proteins run alone or mixed 1:1 (mass ratio) at room temperature for 1 h; fractions on SDS-PAGE

| Molecule | Kd [1] [mM] | Kd [2] [mM] | Kd [3] [mM] | Binding affinity of hetero-complex relative to homo-complex ([2]; hMPC-1/hMPC-2 hetero-complex higher than homo-complex) [fold] | binding result [4] |
| --- | --- | --- | --- | --- | --- |
| CCc1ccc(CCOc2ccc(CC3SC(=O)NC3=O)cc2)nc1 (centres unmarked) [Pioglitazone] | 0.0993 ± 0.0145 | 0.0603 ± 0.00611 | 0.0841 ± 0.0103 | – | – |
| CC(=O)C(=O)O [Pyruvate] | 12.9 ± 0.9 | 8.91 ± 1.09 | 12 ± 0.77 | 1.5 | – |
| human mitochondrial pyruvate carrier 1 (hMPC-1), C-terminally tagged (natural protein, UniProt Q9Y5U8 1-109, looked up, human mitochondrial pyruvate carrier 1 (hMPC-1); Printed mass of His-hMPC-1: 15.9 kDa; also called His-hMPC-1; human MPC-1; source: Sf9 (baculovirus), purified in DDM (TALON IMAC, gel filtration); also co-expressed with hMPC-2 in Sf9 by co-infection; not shown: FLAG, C-terminal, kept; 10x His, C-terminal, kept) MAGALVRKAADYVRSKDFRDYLMSTHFWGPVANWGLPIAAINDMKKSPEIISGRMTFALCCYSLTFMRFAYKVQPRNWLLFACHATNEVAQLIQGGRLIKHEMTKTASA | – | – | – | – | binds |
